From patent US20100317688A1, “2-HETEROAROYLIMIDAZOL[1,2-a]PYRIDINE DERIVATIVES, PREPARATION AND THERAPEUTIC USE THEREOF” (SANOFI-AVENTIS, priority 2008, published 2010)

Target: T1, murine Nurr1 receptor (Mus musculus, UniProt Q06219)
T1 construct: a cell line (N2A) endogenously expressing the murine Nurr1 receptor; host or cells: Neuro-2A (N2A) mouse neuroblastoma cells stably transfected with 8NBRE-luciferase
Assay: In vitro activity on N2A cells (8NBRE-luciferase reporter)
Assay type: cell-based
Conditions: N2A cell line endogenously expressing Nurr1, stably transfected with NBRE-luciferase; 24 hours incubation
Description: Evaluation of the In Vitro Activity on N2A Cells
The activity of the compounds according to the invention was evaluated on a cell line (N2A) endogenously expressing the murine Nurr1 receptor and stably transfected with the NOT binding response element (NBRE) coupled to the luciferase reporter gene. The EC50 values are between 0.01 and 1000 nM. The tests were performed according to the procedure described hereinbelow.
The cell line Neuro-2A is obtained from a standard commercial source (ATCC). The clone Neuro-2A was obtained from a spontaneous tumour originating from a strain of albino mice A by R. J Klebe et al. This line Neuro-2A is then stably transfected with 8NBRE-luciferase. The N2A-8NBRE cells are cultured to the point of confluence in 75 cm^2 culture flasks containing DMEM supplemented with 10% foetal calf serum, 4.5 g/L of glucose and 0.4 mg/ml of geneticin. After culturing for one week, the cells are recovered with 0.25% trypsin for 30 seconds and then resuspended in DMEM without phenol red, containing 4.5 g/L of glucose and 10% Hyclone defatted serum, and placed in white, transparent-based 96-well plates. The cells are deposited at a rate of 60 000 per well in 75 μL for 24 hours before adding the products. […] The plates are then measured in a microplate luminescence counter, after having been sealed with an adhesive film. […]

T1 sequence (Q06219 whole entry): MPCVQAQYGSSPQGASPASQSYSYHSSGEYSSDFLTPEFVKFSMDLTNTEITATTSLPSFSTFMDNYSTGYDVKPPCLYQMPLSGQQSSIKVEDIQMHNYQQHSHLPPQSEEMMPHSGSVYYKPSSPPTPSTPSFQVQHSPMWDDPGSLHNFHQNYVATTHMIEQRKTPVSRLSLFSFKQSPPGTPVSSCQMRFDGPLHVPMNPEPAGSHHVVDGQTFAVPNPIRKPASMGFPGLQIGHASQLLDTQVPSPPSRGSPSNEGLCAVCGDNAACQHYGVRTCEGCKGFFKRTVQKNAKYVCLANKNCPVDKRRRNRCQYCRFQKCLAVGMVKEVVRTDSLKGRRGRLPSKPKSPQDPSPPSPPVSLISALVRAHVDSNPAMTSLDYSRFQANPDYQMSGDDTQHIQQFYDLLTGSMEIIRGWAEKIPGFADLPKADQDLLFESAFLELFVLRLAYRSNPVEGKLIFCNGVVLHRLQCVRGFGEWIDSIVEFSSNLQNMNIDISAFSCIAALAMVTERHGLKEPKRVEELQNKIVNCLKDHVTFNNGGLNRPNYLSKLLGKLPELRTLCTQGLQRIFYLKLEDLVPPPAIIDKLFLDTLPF

## O=C(c1cn2cc(Cl)ccc2n1)c1cccs1 [Example 4, (6-Chloroimidazo[1,2-a]pyridin-2-yl)(thien-2-yl)methanone]
  EC50: 4.7 nM
